This passage reports IC50 results from ChEMBL document CHEMBL5727860, “Bicyclic heteroaryl substituted compounds” (2020).

This assay concerns the target T1, Proteinase-activated receptor 4 (Homo sapiens, UniProt Q96RI0).
T1 sequence (Q96RI0 whole entry): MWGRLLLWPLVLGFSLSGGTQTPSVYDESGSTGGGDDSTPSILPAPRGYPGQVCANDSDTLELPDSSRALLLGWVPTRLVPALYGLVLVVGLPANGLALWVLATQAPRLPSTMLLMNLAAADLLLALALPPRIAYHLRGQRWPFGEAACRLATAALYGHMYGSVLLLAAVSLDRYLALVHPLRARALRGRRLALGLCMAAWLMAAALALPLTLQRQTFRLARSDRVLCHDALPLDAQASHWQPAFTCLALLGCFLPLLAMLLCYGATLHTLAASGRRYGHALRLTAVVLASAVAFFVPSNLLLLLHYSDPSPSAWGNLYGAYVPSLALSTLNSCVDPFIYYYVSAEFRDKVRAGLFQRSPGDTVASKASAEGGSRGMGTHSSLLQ
The assay is described as follows: FLIPR Assay in PAR4-Expressing HEK293 Cells: FLIPR-based calcium mobilization assay in HEK293 cells was used to measure PAR4 antagonism agonism, and selectivity against PAR1. The activity of the PAR4 antagonists of the present invention were tested in PAR4 expressing cells by monitoring H-Ala-Phe(4-F)-[…]NH2-induced intracellular calcium mobilization. Counter screens for agonist activity and PAR1 antagonist activity were also performed. Briefly, PAR/PAR4-expressing HEK293 cells were grown in DMEM (Life Technology, Grand Island, N.Y.) containing 10% heat-inactivated FBS, 1% Penicillin-Streptomycin, 10 μg/mL blasticidin, and 100 μg/mL Zeocin at 37° C. with 5% CO2. Cells were plated overnight prior to the experiment in a black 384-well Purecoat Amine clear bottom plate (Becton Dickinson Biosciences, San Jose, Calif.) at 10,000 cells/well in 30 μL growth medium and incubated in a humidified chamber at 37° C. with 5% CO2 overnight. Prior to compound addition, the cell medium was replaced with 40 μL of 1× calcium and magnesium-containing Hank's Balanced Saline Solution (HBSS) (with 20 mM HEPES) and 1:1000 diluted fluorescent calcium indicator (Codex Biosolutions, Gaithersburg, Md.). […]. On the technique in general: Calcium flux is commonly read through the fluorescence of an indicator in the cells.

The IC50 is the concentration that inhibits the measured activity by half. On to `COc1ccc(NC(=O)O[C@H]2CCNC[C@H]2Oc2cc3sc(-c4cc(C)cc5nc(OC)cnc45)nc3cc2F)cn1` (racemic), for which the concentration for half-maximal inhibition (IC50) is 980 nM.
Next, `COc1cnc2c(-c3nc4cc(F)c(O[C@@H]5CC(F)(F)C[C@@H]5OC(=O)Nc5cnc(OCCO)nc5)cc4s3)cc(C)cc2c1` (relative stereo): 20 nM.
